{"source": "patent US20050101577A1", "about": "“2-alkylidene-19-nor-vitamin D derivatives for the treatment of rickets or vitamin D deficiency” (Pfizer Inc., priority 2003, published 2005)", "origin": "cited, not measured here", "test_system": "intestinal calcium transport", "conditions": "260 pmol/day, only dose tested", "data": [{"smiles": "C=C1/C(=C\\C=C2/CCC[C@]3(C)[C@@H]([C@H](C)CCCC(C)(C)O)CC[C@@H]23)C[C@@H](O)C[C@@H]1O", "note": "[1,25-(OH)2D3, 1,25-dihydroxyvitamin D3]", "values": [{"measurement": "intestinal calcium transport (in words)", "value": "expected elevation of intestinal calcium transport"}]}]}
